For 19 compounds, IC50 results are on record in patent US20240116988A1, “ANTI-ROR1 MACROCYCLIC PEPTIDES AND COMPOSITIONS” (BRISTOL-MYERS SQUIBB COMPANY, priority 2022, published 2024).

This assay addresses T1, human ROR1 (Homo sapiens, UniProt Q01973).
T1 construct: host or cells: HEK 293T cells, Tet-on system induced with doxycycline
The assay can be described thus: ROR1 high content cell-based binding assay. To be noted: read-out: ROR1 Binding 293T Human HC Cell Based Assay IC50. The essentials:
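Doxycycline-induced 293T cells expressing human ROR1, seeded overnight, were treated with compound plus 5-FAM-labeled ROR1-binding probe peptide (30 nM final) for 1 h at 37 °C. After washing and formaldehyde/Hoechst fixation, cell-bound probe fluorescence was read by high-content imaging.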

Positions of bridges follow the written chain, without caps; N, C: chain ends. Non-standard residues stand in square brackets, D forms with d. Residues, ends and D or L forms follow the SMILES beside them. 2Nal = N[C@@H](Cc1ccc2ccccc2c1)C(=O)O; NMeF = CN[C@@H](Cc1ccccc1)C(=O)O; PEG5 = NCCOCCOCCOCCOCCOCCC(=O)O; NMeL = CN[C@@H](CC(C)C)C(=O)O; Phg = N[C@H](C(=O)O)c1ccccc1; PEG3 = NCCOCCOCCOCCC(=O)O; NMeA = CN[C@@H](C)C(=O)O; Nle = CCCC[C@H](N)C(=O)O; AEEA = NCCOCCOCC(=O)O; Sar = CNCC(=O)O

T1 sequence (Q01973 30-937): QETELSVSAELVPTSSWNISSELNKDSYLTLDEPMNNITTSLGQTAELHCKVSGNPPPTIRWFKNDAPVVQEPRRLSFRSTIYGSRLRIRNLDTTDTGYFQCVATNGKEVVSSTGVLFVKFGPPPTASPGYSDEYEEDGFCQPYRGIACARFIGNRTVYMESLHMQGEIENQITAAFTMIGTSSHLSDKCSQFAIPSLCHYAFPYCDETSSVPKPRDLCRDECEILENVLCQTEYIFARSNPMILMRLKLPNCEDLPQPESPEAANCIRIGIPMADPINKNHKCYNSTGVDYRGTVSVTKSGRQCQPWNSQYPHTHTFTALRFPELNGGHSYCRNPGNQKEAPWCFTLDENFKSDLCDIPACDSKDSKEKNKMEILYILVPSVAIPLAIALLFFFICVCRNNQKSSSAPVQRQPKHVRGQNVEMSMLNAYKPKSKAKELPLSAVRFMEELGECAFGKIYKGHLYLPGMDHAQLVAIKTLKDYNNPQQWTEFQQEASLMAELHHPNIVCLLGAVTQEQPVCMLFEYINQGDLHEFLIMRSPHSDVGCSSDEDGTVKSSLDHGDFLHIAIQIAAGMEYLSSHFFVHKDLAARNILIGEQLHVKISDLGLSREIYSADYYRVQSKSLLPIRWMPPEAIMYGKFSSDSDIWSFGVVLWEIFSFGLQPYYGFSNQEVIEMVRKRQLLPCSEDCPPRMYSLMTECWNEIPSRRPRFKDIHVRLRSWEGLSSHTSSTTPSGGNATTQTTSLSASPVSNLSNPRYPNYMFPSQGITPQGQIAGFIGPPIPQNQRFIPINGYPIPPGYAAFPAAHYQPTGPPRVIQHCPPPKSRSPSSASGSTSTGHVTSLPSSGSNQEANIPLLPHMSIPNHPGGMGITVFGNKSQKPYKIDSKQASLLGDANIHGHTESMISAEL

One may read the IC50 as the concentration that inhibits the measured activity by half. As to `CC(C)C[C@@H]1NC(=O)[C@H](Cc2ccc(O)cc2)NC(=O)[C@H](Cc2ccccc2)N(C)C(=O)CSC[C@@H](C(=O)NCC(N)=O)NC(=O)[C@H](CC(C)C)NC(=O)[C@H](Cc2ccccc2)N(C)C(=O)[C@H](Cc2ccc(O)cc2)NC(=O)[C@H](Cc2c[nH]c3ccccc23)NC(=O)CNC(=O)[C@H](CO)NC(=O)[C@H](Cc2ccc(O)cc2)NC(=O)[C@H](C(C)C)NC1=O` [Example 1082] ({CH2CO}-[NMeF]YLVYSGWY[NMeF]LCG-NH2; thioether N-12), the IC50 is 192 nM.

Turning to `CC(C)C[C@@H]1NC(=O)[C@H](Cc2ccc(O)cc2)NC(=O)[C@H](Cc2ccccc2)NC(=O)CSC[C@@H](C(=O)NCCOCCOCCOCCOCCOCCC(=O)N[C@@H](CCCCN)C(N)=O)NC(=O)[C@H](CC(C)C)NC(=O)[C@H](Cc2ccccc2)N(C)C(=O)[C@H](Cc2ccc(O)cc2)NC(=O)[C@H](Cc2c[nH]c3ccccc23)NC(=O)CNC(=O)[C@H](CO)NC(=O)[C@H](Cc2ccc(O)cc2)NC(=O)[C@H](C(C)C)NC1=O` [Example 1083] ({CH2CO}-FYLVYSGWY[NMeF]LC[PEG5]K-NH2; thioether N-12), the IC50 was determined as 22 nM.

As to `CC[C@H](C)[C@@H]1NC(=O)CSC[C@@H](C(=O)NCC(N)=O)NC(=O)[C@H](CC(C)C)NC(=O)[C@H](Cc2ccccc2)N(C)C(=O)[C@H](Cc2ccc(O)cc2)NC(=O)[C@H](Cc2c[nH]c3ccccc23)NC(=O)CNC(=O)[C@H](CO)NC(=O)[C@H](Cc2ccc(O)cc2)NC(=O)[C@H](C(C)C)NC(=O)[C@H](CC(C)C)NC(=O)[C@H](Cc2ccc(O)cc2)NC1=O` [Example 1084] ({CH2CO}-IYLVYSGWY[NMeF]LCG-NH2; thioether N-12), the IC50 is 227 nM.

Regarding `CC(C)C[C@@H]1NC(=O)[C@H](Cc2ccc(O)cc2)NC(=O)[C@H](Cc2ccccc2)NC(=O)CSC[C@@H](C(=O)NCCOCCOCCOCCC(=O)N[C@@H](CCCCN)C(N)=O)NC(=O)[C@H](CC(C)C)NC(=O)[C@H](Cc2ccccc2)N(C)C(=O)[C@H](Cc2ccc(O)cc2)NC(=O)[C@H](Cc2c[nH]c3ccccc23)NC(=O)CNC(=O)[C@H](CO)NC(=O)[C@H](Cc2ccc(O)cc2)NC(=O)[C@H](C(C)C)NC1=O` [Example 1085] ({CH2CO}-FYLVYSGWY[NMeF]LC[PEG3]K-NH2; thioether N-12), the IC50 came to 18 nM.

In the case of `CC(C)C[C@@H]1NC(=O)[C@H](Cc2ccccc2)NC(=O)CSC[C@@H](C(=O)NCCOCCOCC(=O)O)NC(=O)[C@H](C)NC(=O)[C@H](Cc2ccc(O)cc2)NC(=O)[C@H](Cc2ccc(O)cc2)NC(=O)[C@H](Cc2c[nH]c3ccccc23)NC(=O)CNC(=O)[C@H](Cc2ccc(O)cc2)NC(=O)[C@H](CCCNC(=N)N)NC(=O)[C@H](C(C)C)NC(=O)[C@H](Cc2c[nH]c3ccccc23)NC1=O` [Example 1086] ({CH2CO}-FLWVRYGWYYAC[AEEA]-OH; thioether N-12), the IC50 turned out to be 364 nM.

`CC(C)C[C@@H]1NC(=O)[C@H](Cc2ccccc2)NC(=O)CSC[C@@H](C(=O)NCC(=O)NCCOCCOCC(=O)O)NC(=O)[C@H](C)NC(=O)[C@H](Cc2ccc(O)cc2)NC(=O)[C@H](Cc2ccc(O)cc2)NC(=O)[C@H](Cc2c[nH]c3ccccc23)NC(=O)CNC(=O)[C@H](Cc2ccc(O)cc2)NC(=O)[C@H](CCCNC(=N)N)NC(=O)[C@H](C(C)C)NC(=O)[C@H](Cc2c[nH]c3ccccc23)NC1=O` [Example 1087] ({CH2CO}-FLWVRYGWYYACG[AEEA]-OH; thioether N-12): the IC50 was found to be 131 nM.

As for `CC(C)C[C@@H]1NC(=O)[C@H](Cc2ccc(O)cc2)NC(=O)[C@H](CCC(N)=O)NC(=O)CSC[C@@H](C(=O)NCC(N)=O)NC(=O)[C@H](CC(C)C)NC(=O)[C@H](Cc2ccccc2)N(C)C(=O)[C@H](Cc2ccc(O)cc2)NC(=O)[C@H](Cc2c[nH]c3ccccc23)NC(=O)CNC(=O)[C@H](CO)NC(=O)[C@H](Cc2ccc(O)cc2)NC(=O)[C@H](C(C)C)NC1=O` [Example 1088] ({CH2CO}-QYLVYSGWY[NMeF]LCG-NH2; thioether N-12), the IC50 was determined as 83 nM.

Regarding `CC(C)C[C@@H]1NC(=O)[C@H](Cc2ccc(O)cc2)NC(=O)[C@H](Cc2ccccc2)NC(=O)CSC[C@@H](C(=O)NCCOCCOCC(=O)N[C@@H](CCCCN)C(N)=O)NC(=O)[C@H](CC(C)C)NC(=O)[C@H](Cc2ccccc2)N(C)C(=O)[C@H](Cc2ccc(O)cc2)NC(=O)[C@H](Cc2c[nH]c3ccccc23)NC(=O)CNC(=O)[C@H](CO)NC(=O)[C@H](Cc2ccc(O)cc2)NC(=O)[C@H](C(C)C)NC1=O` [Example 1089] ({CH2CO}-FYLVYSGWY[NMeF]LC[AEEA]K-NH2; thioether N-12), the IC50 stood at 77 nM.

With `CC(C)C[C@@H]1NC(=O)[C@H](Cc2ccc(O)cc2)NC(=O)[C@H](Cc2ccccc2)NC(=O)CSC[C@@H](C(=O)NCCOCCOCC(=O)O)NC(=O)[C@H](CC(C)C)NC(=O)[C@H](Cc2ccccc2)N(C)C(=O)[C@H](Cc2ccc(O)cc2)NC(=O)[C@H](Cc2c[nH]c3ccccc23)NC(=O)CNC(=O)[C@H](CO)NC(=O)[C@H](Cc2ccc(O)cc2)NC(=O)[C@H](C(C)C)NC1=O` [Example 1090] ({CH2CO}-FYLVYSGWY[NMeF]LC[AEEA]-OH; thioether N-12), the IC50 was determined as 67 nM.

Consider `CC(C)[C@@H]1NC(=O)[C@H](Cc2c[nH]c3ccccc23)NC(=O)[C@H](Cc2ccc(O)cc2)NC(=O)[C@H](Cc2c[nH]c3ccccc23)NC(=O)CNC(=O)[C@H](Cc2c[nH]c3ccccc23)NC(=O)[C@H](CCCNC(=N)N)NC(=O)[C@H](C(C)C)NC(=O)[C@H](Cc2ccccc2)N(C)C(=O)[C@H](CCCNC(=N)N)NC(=O)[C@H](Cc2ccccc2)NC(=O)CSC[C@@H](C(=O)NCCOCCOCC(=O)O)NC1=O` [Example 1091] ({CH2CO}-FR[NMeF]VRWGWYWVC[AEEA]-OH; thioether N-12), for which the IC50 stood at 565 nM.

As to `CC(C)C[C@@H]1NC(=O)[C@H](Cc2ccc(O)cc2)NC(=O)[C@H](Cc2ccc3ccccc3c2)NC(=O)CSC[C@@H](C(=O)NCC(N)=O)NC(=O)[C@H](CC(C)C)NC(=O)[C@H](Cc2ccccc2)N(C)C(=O)[C@H](Cc2ccc(O)cc2)NC(=O)[C@H](Cc2c[nH]c3ccccc23)NC(=O)CNC(=O)[C@H](CO)NC(=O)[C@H](Cc2ccc(O)cc2)NC(=O)[C@H](C(C)C)NC1=O` [Example 1092] ({CH2CO}-[2Nal]YLVYSGWY[NMeF]LCG-NH2; thioether N-12), the IC50 came to 43 nM.

Turning to `CC(C)C[C@@H]1NC(=O)[C@H](Cc2ccc(O)cc2)NC(=O)[C@H](c2ccccc2)NC(=O)CSC[C@@H](C(=O)NCC(N)=O)NC(=O)[C@H](CC(C)C)NC(=O)[C@H](Cc2ccccc2)N(C)C(=O)[C@H](Cc2ccc(O)cc2)NC(=O)[C@H](Cc2c[nH]c3ccccc23)NC(=O)CNC(=O)[C@H](CO)NC(=O)[C@H](Cc2ccc(O)cc2)NC(=O)[C@H](C(C)C)NC1=O` [Example 1093] ({CH2CO}-[Phg]YLVYSGWY[NMeF]LCG-NH2; thioether N-12), the IC50 turned out to be 324 nM.

For `CC(C)C[C@@H]1NC(=O)[C@H](Cc2c[nH]c3ccccc23)NC(=O)[C@H](Cc2ccc(O)cc2)NC(=O)[C@H](Cc2c[nH]c3ccccc23)NC(=O)CNC(=O)[C@H](CC(=O)O)NC(=O)[C@H](Cc2ccc(O)cc2)NC(=O)[C@H](C(C)C)NC(=O)[C@@H]2CCCN2C(=O)[C@H](Cc2ccc(O)cc2)NC(=O)[C@H](Cc2ccccc2)NC(=O)CSC[C@@H](C(N)=O)NC1=O` [Example 1094] ({CH2CO}-FYPVYDGWYWLC-NH2; thioether N-12), the IC50 turned out to be 14 nM.

With `CC(C)C[C@@H]1NC(=O)[C@H](Cc2c[nH]c3ccccc23)NC(=O)[C@H](Cc2ccc(O)cc2)NC(=O)[C@H](Cc2c[nH]c3ccccc23)NC(=O)CNC(=O)[C@H](CO)NC(=O)[C@H](Cc2ccc(O)cc2)NC(=O)[C@H](C(C)C)NC(=O)[C@@H]2CCCN2C(=O)[C@H](Cc2ccc(O)cc2)NC(=O)[C@H](Cc2ccccc2)NC(=O)CSC[C@@H](C(N)=O)NC1=O` [Example 1095] ({CH2CO}-FYPVYSGWYWLC-NH2; thioether N-12), the IC50 came out at 11 nM.

With `CCCC[C@@H]1NC(=O)[C@H](Cc2ccc(O)cc2)NC(=O)[C@H](Cc2c[nH]c3ccccc23)NC(=O)[C@H](C)N(C)C(=O)[C@H](CCCNC(=N)N)NC(=O)[C@H](CO)NC(=O)[C@H](CO)NC(=O)[C@H](Cc2c[nH]c3ccccc23)NC(=O)[C@H](Cc2ccc(O)cc2)NC(=O)[C@H](Cc2ccccc2)NC(=O)CSC[C@@H](C(N)=O)NC(=O)[C@H](CC(C)C)N(C)C1=O` [Example 1096] ({CH2CO}-FYWSSR[NMeA]WY[Nle][NMeL]C-NH2; thioether N-12), the IC50 stood at 4 nM.

With `CC(C)[C@@H]1NC(=O)CN(C)C(=O)[C@H](CCCNC(=N)N)NC(=O)[C@H](Cc2ccccc2)NC(=O)CSC[C@@H](C(N)=O)NC(=O)[C@H](C(C)C)NC(=O)[C@H](Cc2c[nH]c3ccccc23)NC(=O)[C@H](Cc2ccc(O)cc2)NC(=O)[C@H](Cc2c[nH]c3ccccc23)NC(=O)CNC(=O)[C@H](Cc2c[nH]c3ccccc23)NC(=O)[C@H](CCCNC(=N)N)NC1=O` [Example 1097] ({CH2CO}-FR[Sar]VRWGWYWVC-NH2; thioether N-12), the IC50 came out at 63 nM.

On to `CC(C)C[C@@H]1NC(=O)[C@H](CC(N)=O)NC(=O)[C@H](Cc2ccccc2)N(C)C(=O)CNC(=O)[C@H](Cc2ccc(O)cc2)NC(=O)[C@H](Cc2ccccc2)NC(=O)CSC[C@@H](C(=O)NCC(N)=O)NC(=O)[C@H](Cc2c[nH]c3ccccc23)NC(=O)[C@H](Cc2ccc(O)cc2)NC1=O` [Example 1100] ({CH2CO}-FYG[NMeF]NLYWCG-NH2; thioether N-9), for which the IC50 came out at 121 nM.

For the compound `CC(C)C[C@@H]1NC(=O)[C@H](Cc2ccccc2)NC(=O)[C@H](Cc2ccccc2)N(C)C(=O)CNC(=O)[C@H](Cc2ccc(O)cc2)NC(=O)[C@H](Cc2ccccc2)NC(=O)CSC[C@@H](C(N)=O)NC(=O)[C@H](Cc2c[nH]c3ccccc23)NC(=O)[C@H](Cc2ccc(O)cc2)NC1=O` [Example 1102] ({CH2CO}-FYG[NMeF]FLYWC-NH2; thioether N-9), the IC50 worked out at 97 nM.

With `CN1C(=O)CNC(=O)[C@H](Cc2ccc(O)cc2)NC(=O)[C@H](Cc2ccccc2)NC(=O)CSC[C@@H](C(N)=O)NC(=O)[C@H](Cc2c[nH]c3ccccc23)NC(=O)[C@H](Cc2ccc(O)cc2)NC(=O)[C@H](Cc2ccccc2)NC(=O)[C@H](CC(N)=O)NC(=O)[C@@H]1Cc1ccccc1` [Example 1103] ({CH2CO}-FYG[NMeF]NFYWC-NH2; thioether N-9), the IC50 worked out at 923 nM.
